US5990104A, “Polycyclic alcaloid-derivatives as NMDA-receptor antagonists” (priority 1995, dated 1999)

Legend:
Assay type in all cases: in vivo
[1] = system: NMDA-induced convulsions; assay: Neuroprotective/anticonvulsant activity against NMDA-induced convulsions and mortality in mice; conditions: for neuroprotectant activity, dose dependence: NMDA challenge in mice, FIGS. 1-3; for time course of protecting effects: i.c.v. preadministration at various doses, NMDA challenge; for time course of protecting effects / CD50 (95% confidence interval): mice; for CD50 (95% confidence interval): icv, NMDA 1 nmole/mouse
Protocol: The term CD50 as shown in Table 1 is defined as the dose of drug which induces a 50% reduction in the number of deaths caused by NMDA administration.
For purposes of comparison, the compounds of the present invention and reference standards were administered to mice and the time course of neuroprotectant activity was determined subsequent to challenge by NMDA. Compounds were administered i.c.v. or i.p. at different times and concentrations prior to injection of NMDA (1 nmol/mouse, I.C.V.). The mortality rate (CD50) TABLE I and the response curves.
In FIG. 1, dextrorphan was i.c.v. preadministered at a concentration of 1.0 (closed circle); 5.0 (open square); and 10 (closed square) nmole/mouse. The open circle represents preadministration of saline at a concentration of 10 μl/mouse.
A does dependent time course profile of the neuroprotectant activity against NMDA induced convulsions of compound #9 in mice is illustrated in FIG. 3. […] In both FIGS. 2 and 3, the respective compound was preadministered at (open circle); 50 (closed circle); and 100 (closed square) nmole/mouse.
Comparison of anticonvulsant activity of compounds of the
present invention and dextrorphan against NMDA-induced
convulsions in mice (at 1 nmole/mouse)

[2] = Motor coordination by rotarod; conditions: 8 rpm, Compound #13 compared to dextrorphan
Protocol: Motor effects illicited by various antagonists were assessed using a rotarod treadmill (model 7600, UGO Basile, Italy). The method used was similar to the procedure described by Dunhamand Miya (J. Am. Pharmac. Assoc. 46 208-209-1957). The apparatus consisted of a rod of 2.5 cm diameter which was suspended horizontally 50 cm above a working area. The rod was turned at a speed of 8 rpm. Circular perplex separators were placed at intervals along the rod so that five animals could be tested simultaneously. All animals were conditioned to the rod for two consecutive days prior to experimentation.
The results of a study in which comparative motor impairment caused by Compound #13 was compared to dextrorphan, as assessed by rotarod.

[3] = Locomotion and falling behaviour; conditions: I.C.V., mice, observed 15 to 30 minutes
Protocol: Mice were place individually in observation cages for a 60 minute habituation period. They were injected I.C.V. with test compounds and observed for 15 to 30 minutes. Locomotion and falling behavior were assessed according to the procedure of Koek and Colpaert (J. Pharm. Exp. Therm. 252 349-357, 1990). For each animal, the presence of locomotor activity and falling behaviour was recorded. Statistical significance of drug-induced changes in the occurrence of a particular behaviour was tested by means of the method of Fray et al. (Psycopharmacol 69 253-259, 1980). MK-801, known to have intrinsic neurotoxicity, induced falling behaviour at doses as low as 1.5 nmol/mouse.

Structure (SMILES) | neuroprotectant activity, dose dependence [1] | time course of protecting effects [1] | CD50 (95% confidence interval) [1] | further results
CC12CCCCSC(Cc3ccc(O)cc31)C2N (stereo not shown) [Compound #9, 5,6,7,8,9,11,12-heptahydro-3-hydroxy-5-methyl-10-thia-5,11-methanobenzocyclodecen-13-amine] | dose dependent neuroprotectant activity effect | time-dependent decreases in the protective effects | 0.95 (0.62-1.45) nmo1/mouse | 
CN1CC[C@@]23CCCC[C@@H]2[C@@H]1Cc1ccc(O)cc13 [Dextrorphan, dextrorphan, reference compound] | dose dependent neuroprotectant activity effect | time-dependent decreases in the protecting effects | 0.55 (0.39-0.78) nmo1/mouse | percentage of animals showing motor effects [2]: higher for animals treated with dextrorphan than for animals treated with Compound #13
CC12CCCCCC(Cc3ccc(O)cc31)C2N (stereo not shown) [Compound #13, 5,6,7,8,9,11,12-heptahydro-3-hydroxy-5-methyl-5, 11-methanobenzocyclodecene-13-amine, reference compound] | dose dependent neuroprotectant activity effect | time-dependent decreases in the protecting effects | 28.7 (15.3-53.8) nmo1/mouse | percentage of animals showing motor effects [2]: higher for animals treated with dextrorphan than for animals treated with Compound #13
CC12CCCCSC(Cc3ccc(O)cc31)C2N (single isomer, unassigned; (+)) [Compound #9b, (+)-trans-5,6,7,8,9,11,12-heptahydro-10-thia-3-hydroxy-5-methyl-5,11-methanobenzocyclodecen-13amine] |  |  | 1.58 (0.95-2.62) nmo1/mouse | 
CC12CCCCSC(Cc3ccc(O)cc31)C2NC(=N)N (stereo not drawn) [Compound #11, trans-5,6,7,8,9,11,12-heptahydro-10-thia-3-hydroxy-5-methyl-5,11-methanobenzocyclodecen-13-guanidine] |  |  | 0.16 (0.11-0.25) nmo1/mouse | potency relative to Dextrorphan ([1]; NMDA-induced convulsions in mice): approximately 3 fold; anticonvulsive activity ([1]; NMDA-induced convulsions in mice, in words): greatest activity
CC12CCCCSC(Cc3ccc(O)cc31)C2N (single isomer, unassigned; (-)) [Compound #9a, (-)-trans-5,6,7,8,9,11,12-heptahydro-10-thia-3-hydroxy-5-methyl-5,11-methanobenzocyclodecen-13-amine] |  |  | 2.90 (1.75-4.85) nmo1/mouse | 
CC12CCCCSC(Cc3ccc(O)cc31)C2NO (stereo not drawn) [Compound #10, 5,6,7,8,9,11,12-heptahydro-3-hydroxy-5-methyl-10-thia-5,11-methanobenzocyclodecene-13-β-hydroxylamine] |  |  | 1.79 (0.99-3.25) nmo1/mouse | 
COc1ccc2c(c1)C1(C)CCCCSC(C2)C1N (stereo not shown) [Compound #8b, 5,6,7,8,9,11,12-heptahydro-3-methoxy-5-methyl-10-thia-5,11-methanobenzocyclodecen-13-amine] |  |  | 7.64 (4.8-12.0) nmo1/mouse | 
C[C@]12N[C@H](Cc3ccccc31)c1ccccc12 [MK-801] |  |  |  | dose inducing falling behaviour (as low as) [3]: 1.5 nmol/mouse
